# Laboratory results reported in patent US11497757B2, “Silanol based therapeutic payloads” (BlinkBio, Inc., priority 2016, dated 2022).
# What was measured:
# KB cells = test: CellTiter-Glo cell viability, washout protocol; assay type: cell-based; settings: for EC50: washout protocol: 2 h incubation, wash, additional 70 h, siloxane based conjugates; for % Kill (48 h): washout protocol
# Description: Washout protocol: KB cells in culture were seeded in white clear bottom 96-well tissue culture plate at a density of 5,000 cells per well in a folate free RPMI media with 10% FBS a day prior to compound addition. Cells were counted visually with a hemocytometer and diluted accordingly to obtain the desired density. Cells were allowed to incubate for 24 hours in a humidified CO2 atmosphere in an incubator at 37° C. The spent media was aspirated and replenished with 100 μL of fresh media containing a 3-fold serial dilution of compound with concentrations ranging from 0.3 to 2000 nM and with a final DMSO concentration of 0.1%. Blank wells without compound were also treated with media containing 0.1% DMSO. […] […] At the end of 70 h, the spent media was removed and cells were washed once with fresh media and then suspended 100 μL of PBS. 100 μL of constituted Cell titer-glo reagent was added to each well and luminescence was recorded with a VICTOR plate reader according to manufacturers' protocol.
# [1] = tested on: Folate receptor alpha expressing KB cells; test: Confocal imaging study demonstrating endocytosis and Si-O cleavage; assay type: cell-based; settings: 50 nM
# Description: Example 51 as shown above contains a folate receptor targeting ligand, a spacer moiety, a siloxane core and two different fluorescent dyes (BODIPY and rhodamine) positioned on either side of the siloxane core. Folate receptor alpha expressing KB cells were grown in folic acid free media. The cells were incubated for 30 minutes on ice with 50 nM of Example 51, washed with fresh culture medium and then incubated in media at 37° C. for the desired length of time. The fate of both dyes was simultaneously monitored using confocal microscopy using Zeiss LSM 780 laser scanning microscope.
Compound,EC50 (KB cells) [µM],% Kill (48 h) (KB cells) [%],Folate receptor binding on cell surface (colocalization of dyes) ([1]; t=0),"Cleavage of the siloxane core (color separation of the two dyes) ([1]; t=30 min, 37° C.)","Endocytosis of intact conjugate into the cell ([1]; t=30 min, 37° C.)"
CC[C@]1(O)C[C@@H]2C[N@@](CCc3c([nH]c4ccccc34)[C@@](C(=O)OC)(c3cc4c(cc3OC)N(C)[C@H]3[C@@](O)(C(=O)NCCC[Si](C)(C)O[Si](C)(C)CSc5ncc(Cn6cc(COCCOCCOCCOCCOCCOCCNC(=O)CC[C@H](NC(=O)c7ccc(NCc8cnc9nc(N)[nH]c(=O)c9n8)cc7)C(=O)O)nn6)cn5)[C@H](O)[C@]5(CC)C=CCN6CC[C@]43[C@@H]65)C2)C1 [Example 24],~0.265,84,,,
CC[C@]1(O)C[C@@H]2CN(CCc3c([nH]c4ccccc34)[C@@](C(=O)OC)(c3cc4c(cc3OC)N(C)[C@H]3[C@@](O)(C(=O)NCCC[Si](C)(C)O[Si](C)(C)CSc5ncc(Cn6cc(C[C@H](NC(=O)[C@H](CC(=O)O)NC(=O)[C@H](CC(=O)O)NC(=O)[C@H](CCCNC(=N)N)NC(=O)[C@H](CC(=O)O)NC(=O)CC[C@H](NC(=O)c7ccc(NCc8cnc9nc(N)[nH]c(=O)c9n8)cc7)C(=O)O)C(=O)O)nn6)cn5)[C@H](O)[C@]5(CC)C=CCN6CC[C@]43[C@@H]65)C2)C1 [Example 28],~0.156,86,,,
"CC[C@H](C)[C@@H]([C@@H](CC(=O)N1CCC[C@H]1[C@H](OC)[C@@H](C)C(=O)N[C@@H](Cc1ccccc1)C(=O)O)OC)N(C)C(=O)[C@@H](NC(=O)[C@H](C(C)C)N(C)C(=O)CCC[Si](C)(C)O[Si](C)(C)c1cccc(CC(=O)NCCOCCOCCOCCOCCOCCn2cc(COCC(COCc3cn(CCOCCOCCOCCOCCOCCNC(=O)Cc4cccc([Si](C)(C)O[Si](C)(C)CCCC(=O)N(C)[C@H](C(=O)N[C@H](C(=O)N(C)[C@@H]([C@@H](C)CC)[C@@H](CC(=O)N5CCC[C@H]5[C@H](OC)[C@@H](C)C(=O)N[C@@H](Cc5ccccc5)C(=O)O)OC)C(C)C)C(C)C)c4)nn3)(COCc3cn(CCOCCOCCOCCOCCOCCNC(=O)Cc4cccc([Si](C)(C)O[Si](C)(C)CCCC(=O)N(C)[C@H](C(=O)N[C@H](C(=O)N(C)[C@@H]([C@@H](C)CC)[C@@H](CC(=O)N5CCC[C@H]5[C@H](OC)[C@@H](C)C(=O)N[C@@H](Cc5ccccc5)C(=O)O)OC)C(C)C)C(C)C)c4)nn3)NC(=O)CCOCCOCCOCCOCCOCCOCCNC(=O)CC[C@H](NC(=O)c3ccc(NCc4cnc5nc(N)[nH]c(=O)c5n4)cc3)C(=O)O)nn2)c1)C(C)C [Example 35, Folate-PEG-Adaptor-PhenylSiLinker-TripleAuristatin]",~0.008,,,,
CCN(CC)c1ccc2c(-c3ccc(S(=O)(=O)NCc4cnc(SC[Si](C)(C)O[Si](C)(C)CCCN5C(=O)CC(SC[C@H](NC(=O)[C@H](CNC(=O)CCC6=[N+]7C(=Cc8c(C)cc(C)n8[B-]7(F)F)C=C6)NC(=O)[C@H](CC(=O)O)NC(=O)CC[C@H](NC(=O)c6ccc(NCc7cnc8nc(N)[nH]c(=O)c8n7)cc6)C(=O)O)C(=O)O)C5=O)nc4)cc3S(=O)(=O)[O-])c3ccc(=[N+](CC)CC)cc-3oc2c1 (some centres unmarked) [Example 51],,,bound to the folate receptor on the cell surface,cleavage of the siloxane core was observed,endocytosis of intact Example 51 into the cell was observed
